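Protocol summary: plate cells (96-well), add compound at 5 concentrations, incubate 48 h, interpolate endpoints linearly. GI50 = concentration required for 50% inhibition of growth. The concentration for full growth arrest is given as TGI.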
Assays:
Test in all cases: DTP human tumour cell line panel, 48 h
OVCAR-4 ovarian = tested on: OVCAR-4 ovarian
IGROV1 ovarian = tested on: IGROV1 ovarian
SK-OV-3 ovarian = tested on: SK-OV-3 ovarian
LOX IMVI melanoma = tested on: LOX IMVI melanoma
SK-MEL-28 melanoma = tested on: SK-MEL-28 melanoma
SNB-19 CNS = tested on: SNB-19 CNS
A498 renal = tested on: A498 renal
SK-MEL-2 melanoma = tested on: SK-MEL-2 melanoma
PC-3 prostate = tested on: PC-3 prostate
MDA-N = tested on: MDA-N

Row | SMILES | TGI (OVCAR-4 ovarian) [µM] | TGI (IGROV1 ovarian) [µM] | TGI (SK-OV-3 ovarian) [µM] | TGI (LOX IMVI melanoma) [µM] | TGI (SK-MEL-28 melanoma) [µM] | TGI (SNB-19 CNS) [µM] | TGI (A498 renal) [µM] | TGI (SK-MEL-2 melanoma) [µM] | TGI (PC-3 prostate) [µM] | TGI (MDA-N) [µM] | GI50 (OVCAR-4 ovarian) [µM] | GI50 (IGROV1 ovarian) [nM] | GI50 (SK-OV-3 ovarian) [nM] | GI50 (PC-3 prostate) [nM] | GI50 (LOX IMVI melanoma) [nM] | GI50 (SK-MEL-28 melanoma) [nM] | GI50 (SNB-19 CNS) [nM] | GI50 (A498 renal) [nM] | GI50 (SK-MEL-2 melanoma) [µM]
1 | COc1ccc(-c2cc(=O)c3c(O)c(O)c(OC)cc3o2)cc1O | > 100 | > 100 | > 100 | > 100 | > 100 | > 100 | > 100 | > 100 | – | – | – | – | – | – | – | – | – | – | –
2 | CCN(CC)CCC(=O)/C=C/c1ccc(Cl)c(Cl)c1 | > 10 | – | – | – | – | > 10 | – | > 10 | > 10 | > 10 | – | – | – | – | – | – | – | – | –
3 | COc1cc(/C=C/C(=O)CC(=O)/C=C/c2cc(C)c(O)c(OC)c2)cc(C)c1O | > 100 | > 100 | > 100 | > 100 | > 100 | > 100 | > 100 | > 100 | > 100 | – | – | – | – | – | – | – | – | – | –
4 | O=C(CC(C(=O)c1ccsc1)c1cccs1)c1ccccc1 (stereo not drawn) | 67.3 | > 100 | > 100 | > 100 | > 100 | – | > 100 | – | – | > 100 | – | – | – | – | – | – | – | – | –
5 | COc1c(C(=O)/C(=N/Nc2ccc(C(=O)O)cc2)C(C)=O)c(O)cc2occc12 | – | > 100 | > 100 | > 100 | > 100 | > 100 | – | > 100 | > 100 | > 100 | – | – | – | – | – | – | – | – | –
6 | O=C1CCCC2=C1CC1=C(CCCC1=O)N2c1ccc(Cl)cc1 | > 100 | > 100 | > 100 | > 100 | > 100 | > 100 | > 100 | – | > 100 | > 100 | – | – | – | – | – | – | – | – | –
7 | O=C(NC(=S)Nc1ccc(Br)cc1)c1ccc2c(c1)Sc1ccccc1O2 | – | > 100 | > 100 | > 100 | > 100 | > 100 | 66.5 | > 100 | > 100 | > 100 | – | – | – | – | – | – | – | – | –
8 | COc1ccccc1/C=C1\C(=O)N(C(=O)Cc2ccccc2)N=C1C | > 100 | – | – | > 100 | > 100 | > 100 | – | > 100 | – | – | – | – | – | – | – | – | – | – | –
9 | O=C(Nc1ccccc1C(=O)NCc1ccccc1)/C(=C/c1ccccc1O)NC(=O)c1ccccc1 | – | > 100 | > 100 | > 100 | > 100 | > 100 | > 100 | > 100 | > 100 | – | – | – | – | – | – | – | – | – | –
10 | CCC1(CC)C(=O)NC(=O)NC1=S | > 100 | > 100 | > 100 | > 100 | > 100 | > 100 | > 100 | > 100 | – | – | – | – | – | – | – | – | – | – | –
11 | COc1ccc(C2=C(OC(C)=O)c3cccn3-c3ccc(Cl)cc3S2)cc1 | > 10 | > 10 | > 10 | > 10 | > 10 | – | – | – | > 10 | 4.51 | – | – | – | – | – | – | – | – | –
12 | COc1ccc(-c2c(C#N)c(N)[nH]c(=S)c2C#N)cc1 | > 100 | > 100 | – | > 100 | > 100 | > 100 | > 100 | > 100 | > 100 | 28.5 | – | – | – | – | – | – | – | – | –
13 | O=[N+]([O-])c1ccc2c(c1)nc1n2C(c2c(F)cccc2F)SC1 (stereo not drawn) | > 100 | > 100 | > 100 | > 100 | > 100 | > 100 | – | > 100 | > 100 | > 100 | – | – | – | – | – | – | – | – | –
14 | O=C1c2c(c3c4cc(F)ccc4oc3c3[nH]c4ccccc4c23)C(=O)N1O | > 100 | 11.1 | 19.6 | 2.15 | > 100 | 24.9 | 5.2 | 12.6 | > 100 | – | 4.82 | 460 | 2480 | 1350 | 500 | 2890 | 1790 | 1230 | 3.06
15 | O=C1OC(C(O)CO)C(C(O)CO)OC1=O (stereo not drawn) | > 10 | > 10 | – | – | > 10 | > 10 | > 10 | – | > 10 | – | – | – | – | – | – | – | – | – | –
16 | CCC1(O)C(=O)OCc2c1cc1n(c2=O)Cc2cc3cc4c(cc3nc2-1)OCO4 (stereo not drawn) | 1.49 | 1.54 | 1.81 | 0.0688 | 18.9 | 2.17 | 0.0816 | 2.01 | > 100 | – | – | – | – | – | – | – | – | – | –
17 | COc1ccc2c(c1)/C(=C\c1c(Cl)nc3n1CCS3)C(=O)N2 | > 100 | > 100 | 66.9 | > 100 | > 100 | > 100 | 33.2 | – | 20 | 6.54 | – | – | – | – | – | – | – | – | –
18 | CCOC(=O)NC(Nc1ccc(F)cc1F)(C(F)(F)F)C(F)(F)F | – | > 100 | > 100 | > 100 | > 100 | > 100 | > 100 | > 100 | > 100 | > 100 | – | – | – | – | – | – | – | – | –
19 | Nc1nnc(N)n1N | > 100 | > 100 | > 100 | > 100 | > 100 | > 100 | – | > 100 | – | – | – | – | – | – | – | – | – | – | –
20 | Nc1cc(C2CCCc3c2[nH]c2ccccc32)ccc1O (stereo not drawn) | > 100 | > 100 | > 100 | 71.2 | > 100 | > 100 | > 100 | > 100 | > 100 | – | – | – | – | – | – | – | – | – | –
21 | CC1OC(NCCNCCNC2OC(C)C(O)C(O)C2O)C(O)C(O)C1O (stereo not drawn) | > 100 | > 100 | – | > 100 | > 100 | > 100 | > 100 | > 100 | > 100 | > 100 | – | – | – | – | – | – | – | – | –
22 | CC(O)C(CO)NC(=O)C1CSSCC(NC(=O)C(N)Cc2ccccc2)C(=O)NC(Cc2ccccc2)C(=O)NC(Cc2c[nH]c3ccccc23)C(=O)NC(CCCCN)C(=O)NC(C(C)O)C(=O)N1 (stereo not drawn) | > 100 | > 100 | – | > 100 | > 100 | > 100 | > 100 | – | > 100 | > 100 | – | – | – | – | – | – | – | – | –
23 | O=C1C=C(NCCc2ccc(O)c([N+](=O)[O-])c2)C(=O)c2[nH]cnc21 | – | 54.8 | – | > 100 | 30.4 | > 100 | > 100 | 51.1 | > 100 | 31.2 | – | – | – | – | – | – | – | – | –
